One assay concerns ALK. Kind of assay: In vitro transcription-translation (IVTT) reporter assay, ALK test sequence. It is filed as biochemical. The conditions noted are these: HeLa S3 lysate, sfGFP/mCherry ratio, 2 hrs at 30° C. The essentials:
(§1)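 Coupled transcription-translation in HeLa S3 lysate with reporter plasmids encoding mCherry-P2A-3×FLAG-TEST-sfGFP behind an EMCV IRES. Compounds were half-log titrated (30 μM-0.1 μM in DMSO dilution plate) into master mix, then DNA was added. Reactions ran 2 hrs at 30° C, were PBS-quenched and read for fluorescence.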

Another assay deals with MYC. Kind of assay: In vitro transcription-translation (IVTT) reporter assay, MYC test sequence. Type of assay: biochemical. Conditions: HeLa S3 lysate, sfGFP/mCherry ratio, 2 hrs at 30° C. In a few lines: as §1
Another assay relates to KRAS G12D. The assay can be described thus: In vitro transcription-translation (IVTT) reporter assay, KRAS G12D test sequence. It is filed as biochemical. The conditions noted are these: HeLa S3 lysate, sfGFP/mCherry ratio, 2 hrs at 30° C. In a few lines: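 Compounds, half-log titrated 30 μM-0.1 μM in DMSO, were mixed with HeLa S3 lysate master mix and plasmid DNA, then incubated 2 h at 30 °C before PBS quench. Each construct fuses the CCND1, KRAS G12D, MCL-1 or BCL-2 sequence between 3×FLAG and sfGFP, downstream of mCherry-P2A.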

Another assay relates to CCND1. The assay can be described thus: In vitro transcription-translation (IVTT) reporter assay, CCND1 test sequence. The conditions noted are these: HeLa S3 lysate, sfGFP/mCherry ratio, 2 hrs at 30° C. Type of assay: biochemical. An excerpt:
(§2) All reporter constructs have been cloned into the pT7CFE1-CHis plasmid (ThermoFisher #88860) using Gibson assembly procedures (NEB #E2611L). The parental pT7CFE1-CHis plasmid contains an EMCV IRES at the 5′UTR for translation initiation, a multiple-cloning site (MCS) for gene insertion, an optional C-terminal His-epitope tag, and polyA sequence in the 3′UTR to regulate mRNA stability. All reporters are designed to be inserted at the MCS to include a red fluorescent protein (mCherry), P2A self-cleaving peptide which releases the preceding mCherry protein product, and a fusion open reading frame containing a 3×FLAG epitope, a peptide sequence of interest (TEST), and green fluorescent protein (sfGFP).
(§3) Construct Plasmid Preparation: All plasmids are isolated from MACH1 cells (ThermoFisher) grown overnight in ampicillin-containing luria broth, and purified using ZymoPure Express Plasmid Midiprep Kit (Zymo Research). Constructs are sequenced verified and diluted to a working concentration of 110 ng/μL.
(§4) HeLa S3 Lysate Preparation: HeLa S3 cell pellets are acquired from Ipracell/Ipratech (Belgium) and shipped as 4 mL frozen cell pellets on dry ice for storage at −80° C. until use. The procedure for lysate preparation is as follows. Prepare 1× Lysis Buffer, cold and stored on ice:
(§5) Each preparation takes 8 cell pellets (4 ml packed volume each, approximately 1.0×10^9 cells per pellet). Thaw cell pellets from −80° C. on ice for 90 mins. Lay pellets horizontally on top of the ice and rotate every 30 mins to ensure even thawing. Once thawed, add 4 mL of cold lysis buffer to each pellet, and using a serological pipet, gently pipet up and down to break up clumps. Incubate resuspended cells in ice for an additional 30 mins (plunged into ice). During 30 min incubation, rinse and RNase-zap (Ambion) glass dounces (use loose pestle “A”), gently dry and place on ice until needed. Prepare RNase-free Eppendorf tubes for spinning and for batch storage. Add batch labels to 1.5-1.7 mL RNase-free microcentrifuge tubes (labeling scheme below). Each batch will have an extra 1.5-1.7 mL RNase-free microcentrifuge tube for 40 μL of lysate, label the top of this tube (labeling scheme below). After 30 min incubation, transfer all 8 mL of cell pellet to dounce. Cell lysis is complete after douncing 100 times. Aliquot cell lysis into 1.5-1.7 mL temporary-microcentrifuge tubes. Place tubes in centrifuge with “fins” out, and spin at 1,200 xg for 5 mins. After the first spin use a 1 mL pipet to resuspend each tube and repeat spin. This acts as an additional lysis step, is more vigorous and increases lysate yield. During second spin get liquid N2 and a fresh conical tube on ice.
(§6) After spin is complete, transfer supernatant (lysate) from microcentrifuge tubes into the 50 mL conical tube and keep on ice. Repeat steps 10-14 for all other cell pellets until completed. Once all cell lysate has been transferred to the 50 mL conical tube pipet to mix so the solution is homogenous. Transfer 1 mL of lysate into batch-labeled microcentrifuge tubes and flash freeze in liquid nitrogen. Be sure to pipet up and down to mix throughout transfer step. Place all tubes in the […] for long-term storage.
(§7) In vitro transcription-translation assay setup: Each assay includes a master mix containing lysate and shared components, a 96-well plate containing compound titrations for testing, a 96-well DNA plate with reporter constructs to be tested, 96-well skirted PCR plates, and 96-well flat-bottom, black, fluorescent assay plates. […]

Another assay relates to HEK 293T. Kind of assay: Cell viability (CellTiter-Fluor), HEK 293T. Type of assay: cell-based. The conditions noted are these: Homo sapiens, 24-72 hrs. The protocol: (§8) Count and dispense 2,000-10,000 cells per well (100 μL volume) in black 96-well tissue culture microplate and let cells adhere overnight. Add compound dissolved in 100% DMSO to each well as needed and incubate cells in standard culture conditions for 24-72 hrs. Final DMSO concentration in each well should be 0.1-0.5%. At the desired time point, gently aspirate compound containing media and replace with PBS to wash. Repeat wash step for 2 total washes. Remove PBS and add 100 μL CellTiter-Fluor reagent (Promega) reagent to each well. Seal plate and incubate 1 hr at room temperature with orbital shaking. Analyze fluorescence using plate reader to quantify viable cells compared with vehicle (DMSO) control.

For a further assay, the system named is HPAF-II. The assay can be described thus: Cell viability (CellTiter-Fluor), HPAF-II. It is filed as cell-based. Conditions: Homo sapiens, 24-72 hrs. The method, then:
as §8

For the next assay, the system named is KLE. The assay can be described thus: Cell viability (CellTiter-Fluor), KLE. Type of assay: cell-based. The conditions noted are these: Homo sapiens, 24-72 hrs. The method, then: as §8
The subject of another assay is LS411N. The assay can be described thus: Cell viability (CellTiter-Fluor), LS411N. Type of assay: cell-based. Conditions: Homo sapiens, LS-411N, 24-72 hrs. The protocol:
as §8

For a further assay, the system named is MCF7. The assay can be described thus: Cell viability (CellTiter-Fluor), MCF7. The conditions noted are these: Homo sapiens, MCF7, 24-72 hrs. It is filed as cell-based. The protocol: as §8
In the next assay the test system is NCI-H1915. Kind of assay: Cell viability (CellTiter-Fluor), NCI-H1915. It is filed as cell-based. Conditions: NCI-H1915, 24-72 hrs. The protocol:
as §8

The test system of a further assay is HCC38. The assay can be described thus: Cell viability (CellTiter-Fluor), HCC38. It is filed as cell-based. Conditions: Homo sapiens, HCC38, 24-72 hrs. The method, then: as §8
A further assay relates to KATO-III. The assay can be described thus: Cell viability (CellTiter-Fluor), KATO-III. Type of assay: cell-based. Conditions: Homo sapiens, 24-72 hrs. The protocol:
as §8

Another assay relates to MS751. Kind of assay: Cell viability (CellTiter-Fluor), MS751. It is filed as cell-based. Conditions: MS751, 24-72 hrs. The method, then:
as §8

A further assay has as its system T47D. Kind of assay: Cell viability (CellTiter-Fluor), T47D. Conditions: Homo sapiens, 24-72 hrs. Type of assay: cell-based. The method, then: as §8
A further assay deals with BCL-2. Kind of assay: In vitro transcription-translation (IVTT) reporter assay, BCL-2 test sequence. The conditions noted are these: HeLa S3 lysate, sfGFP/mCherry ratio, 2 hrs at 30° C. Type of assay: biochemical.
Description: as §2, §3, §4, §5, §6, §7

In the next assay the test system is MCL-1. The assay can be described thus: In vitro transcription-translation (IVTT) reporter assay, MCL-1 test sequence. Type of assay: biochemical. The conditions noted are these: HeLa S3 lysate, sfGFP/mCherry ratio, 2 hrs at 30° C.
Description: as §2, §3, §4, §5, §6, §7

A further assay concerns HEPG2. Kind of assay: Cell viability (CellTiter-Fluor), HEPG2. Type of assay: cell-based. The conditions noted are these: Homo sapiens, HEPG2, 24-72 hrs. The protocol: as §8

As for `COc1ccc(C[C@H]2NC[C@H](O)[C@H]2OC(=O)Cc2cnc[nH]2)cc1` [V0109, (2R,3S,4S)-4-hydroxy-2-[(4-methoxyphenyl)methyl]pyrrolidin-3-yl 2-(3H-imidazol-4-yl)acetate], the IC50 with ALK was less than 10 µM; in the assay with MYC, less than 10 µM; in the assay on KRAS G12D it was less than 10 µM; in the assay on CCND1, less than 10 µM; in the assay with HEK 293T, less than 0.25 µM; in the assay with HPAF-II, 0.25 to 1 µM. Also, the IC50 in the assay with KLE, with LS411N, in the assay on MCF7 and in the assay on NCI-H1915 was 0.25 to 1 µM each time.
With `COc1ccc(C[C@H]2NC[C@H](O)[C@H]2OC(=O)CC2CC(F)(F)C2)cc1` [V187043, (2R,3S,4S)-4-hydroxy-2-[(4-methoxyphenyl)methyl]pyrrolidin-3-yl 2-(3,3-difluorocyclobutyl)acetate; trifluoroacetic acid], the IC50 with ALK is less than 10 µM; in the assay with MYC it was less than 10 µM; with KRAS G12D, less than 10 µM; in the assay with HEK 293T, less than 0.25 µM; in the assay on HPAF-II, 0.25 to 1 µM; in the assay on KLE, less than 0.25 µM. Further, the IC50 is less than 0.25 µM in the assay with LS411N; less than 0.25 µM in the assay on MCF7; 0.25 to 1 µM in the assay with NCI-H1915; less than 0.25 µM in the assay on HCC38; 0.25 to 1 µM in the assay on KATO-III; less than 0.25 µM in the assay with MS751. In the assay on T47D, the concentration for half-maximal inhibition (IC50) was less than 0.25 µM.
With `COc1ccc(C[C@H]2NC[C@H](O)[C@H]2OC(=O)Cc2cscn2)cc1` [V187049], the IC50 in the assay with ALK was less than 10 µM; with MYC, less than 10 µM; in the assay with KRAS G12D, less than 10 µM; with CCND1 it was less than 10 µM; in the assay with HEK 293T, less than 0.25 µM; in the assay with HPAF-II it was less than 0.25 µM. Moreover, the IC50 in the assay on KLE, in the assay with LS411N, with MCF7, in the assay on NCI-H1915, in the assay on HCC38 and in the assay with KATO-III was less than 0.25 µM each time. For the same compound, the IC50 with MS751 and in the assay on T47D was less than 0.25 µM throughout.
Take `COc1ccc(CC2NCC(O)C2OC(=O)CC2CC2(F)F)cc1` [V187061, 2R,3S,4S)-4-hydroxy-2-[(4-methoxyphenyl)methyl]pyrrolidin-3-yl 2-(2,2-difluorocyclopropyl)acetate]: the IC50 was less than 10 µM in the assay with ALK; less than 10 µM in the assay with MYC; less than 10 µM with KRAS G12D; less than 0.25 µM with HEK 293T; 0.25 to 1 µM in the assay on HPAF-II; 0.25 to 1 µM in the assay with KLE. The half-inhibitory concentration (IC50) is less than 0.25 µM with LS411N; 0.25 to 1 µM with MCF7; 0.25 to 1 µM in the assay with NCI-H1915; 0.25 to 1 µM in the assay with HCC38; 1 to 4 µM in the assay on KATO-III; less than 0.25 µM in the assay on MS751. In addition, the IC50 in the assay with T47D is 0.25 to 1 µM.
Regarding `COc1ccc(C[C@H]2NC[C@H](O)[C@H]2OC(=O)C[C@@H]2CCNC2)cc1` [V187690], the IC50 in the assay with ALK, with MYC, in the assay with KRAS G12D, in the assay on BCL-2, with CCND1 and with MCL-1 was less than 10 µM in each case. Besides, the IC50 in the assay on HEK 293T is 0.25 to 1 µM; with HPAF-II, not below 4 µM; in the assay with KLE, 1 to 4 µM; in the assay with LS411N, 0.25 to 1 µM; with MCF7 it was 0.25 to 1 µM; in the assay with NCI-H1915, not below 4 µM. For the same compound, the IC50 in the assay with HCC38 was in the range of 1 to 4 µM; in the assay with HEPG2, 0.25 to 1 µM; with KATO-III, 1 to 4 µM; in the assay with MS751 it was 0.25 to 1 µM; in the assay on T47D, 1 to 4 µM.
For the compound `CC(=O)O[C@@H]1[C@@H](O)CN[C@@H]1Cc1ccc(-c2cn(Cc3cn[nH]c3)nn2)cc1` [V187844], the IC50 in the assay on MYC, in the assay with BCL-2, in the assay on CCND1 and in the assay on MCL-1 was less than 10 µM throughout.
Regarding `CC(=O)O[C@@H]1[C@@H](O)CN[C@@H]1Cc1ccc(-c2nn[nH]c2Cl)cc1` [V187854], the IC50 with MYC, in the assay on BCL-2, with CCND1 and with MCL-1 was less than 10 µM throughout.
Take `CC(=O)O[C@@H]1[C@@H](O)CN[C@@H]1Cc1ccc(-c2nnn(C)c2Cl)cc1` [V187855]: the IC50 in the assay with MYC, with BCL-2, in the assay on CCND1 and with MCL-1 was less than 10 µM in each case.
In the case of `CC(=O)O[C@@H]1[C@@H](O)CN[C@@H]1Cc1ccc(-c2nnn(Cc3ccccc3)c2Cl)cc1` [V187856], the IC50 with MYC, with BCL-2, in the assay with CCND1 and in the assay with MCL-1 was less than 10 µM in each case.
Take `COc1ccc(C[C@H]2NC[C@H](O)[C@H]2OC(C)=O)cc1I` [V188005]: the IC50 with MYC, in the assay on BCL-2, in the assay on CCND1 and in the assay with MCL-1 was more than 30 µM throughout.

(Values after patent publication US20250091989A1, “SMALL MOLECULE PROTEIN SYNTHESIS MODULATORS” (Interdict Bio, Inc., priority 2023, published 2025).)
